These are literature values, as cited in patent EP2934488B1, “A PHARMACEUTICAL COMPOSITION CONTAINING CANDESARTAN CILEXETIL AND AMLODIPINE” (Adamed Pharma S.A., priority 2012, dated 2014).

Experiment in series [1]: not given
The source holds these as a separate data set.

In the case of `CCOc1nc2cccc(C(=O)O)c2n1Cc1ccc(-c2ccccc2-c2nnn[nH]2)cc1` [candesartan], the candesartan physiologically available (candesartan included in commercial formulations, estimated) is given as 15-40%. On to `CCOC(=O)C1=C(COCCN)NC(C)=C(C(=O)OC)C1c1ccccc1Cl` (racemic) [Amlodipine benzenesulfonate, 3-ethyl 5-methyl (4RS)-2-[(2-amino-ethoxy)-methyl]-6-methyl-1,4-dihydropyridine-3,5-dicarboxylate], for which the solubility in water entry in series [1] is given as “slightly soluble in water”. For the same compound, where the note is “in vivo”, the absolute bioavailability is on record as 64-90%.
